How the values were obtained:
vanilloid TRPV1 receptor = molecular target: T1, vanilloid TRPV1 receptor (Rattus norvegicus, UniProt O35433); assay: [3H]RTX radioligand binding assay in rat spinal cord membranes; conditions: displacement of [3H]RTX (0.4 nM), 37° C., 60 min
T1 construct: the spinal cord was removed and disrupted using a Polytron tissue homogenizer; from tissue; host or cells: spinal cord of male Sprague-Dawley rats (membranes)
Experimental: Male Sprague-Dawley rats with body weight between 250 to 350 g were used. For binding assays the rats were decapitated under anesthesia and the spinal cord was removed and disrupted using a Polytron tissue homogenizer in ice cold buffer containing 5 mM KCl, 5.8 mM NaCl, 0.75 mM CaCl2, 2 mM MgCl2, 320 mM sucrose, 10 mM Hepes, pH 8.6 (Szallasi and Blunberg, 1992; 1993). In competition experiments, the membranes were incubated at 37° C. for 60 min with [^3H]RTX (0.4 nM) and with increasing concentrations of test compounds in the range from 0.1 nM to 3 μM. Non-specific binding was evaluated in the presence of 1 μM RTX. Saturation and competition studies were analyzed with the Ligand program (Bradford, 1976; Munson and Rodbard, 1980).
Compounds 6a-6m displaced [^3H]RTX from its binding site in rat spinal cord membranes at low concentrations, as indicated by the Ki values reported in Table 1.

TRPV1 = molecular target: T2, TRPV1 (Rattus norvegicus, UniProt O35433); assay: Ca2+ fluorescence measurements in cultured rat trigeminal ganglia (capsaicin-evoked [Ca2+]i mobilization); assay type: cell-based; conditions: 30 nM capsaicin, rat trigeminal neuron cells; read-out: IC50 of inhibiting capsaicin-evoked [Ca2+]i mobilization
T2 construct: Ca^2+ Fluorescence Measurements in Cultured Rat Trigeminal Ganglia; endogenous in cells; host or cells: cultured rat trigeminal ganglion neurons (primary culture)
Experimental: The calibration curve was determined using a buffer containing Fura-2-AM-ester and definite concentrations of free Ca^2+. This curve was then used to convert the data obtained from F340/F380 ratio to [Ca^2+]i (nM) (Kudo, Y). The effects of pretreatments with compounds 6a-6m on the increase in [Ca^2]i produced by 30 nM capsaicin were studied.
Capsaicin (30 nM) increased [Ca^2+]i in the vast majority (95%) of rat trigeminal neuron cells, which were therefore identified as TRPV1-expressing neurons.

[1] = Preliminary cassette pharmacokinetic study in catheterized conscious rats; assay type: in vivo; conditions: plasma; rat, oral, cassette dosing; read-out: Pharmacokinetics in Rat Oral t1/2
Experimental: (§1) LogD Values at pH=7.0 were calculated in silico, while the in vitro tests analysed: • metabolic stability in cryopreserved human hepatocytes; • cytotoxicity on Hep G2 cells; • cassette pharmacokinetics in rat.
Compounds were administered together to rats. The compounds were stored at −20° C. when not used. The formulation, route of administration, plasma samples identification and pharmacokinetic analysis were performed according to standard protocols (Raynaud, F I et al, 2004; Manitpisitkul, P. et al., 2004; Singh S. et al., 2006).

[2] = tested on: capsaicin-induced secondary allodynia; assay: Capsaicin-induced secondary allodynia in rat; assay type: in vivo; conditions: 30 μmol/kg p.o., 2 hours prior to capsaicin, 90 min after capsaicin challenge
Experimental: Capsaicin (5 nmols/50 μl/paw) was injected in the plantar surface of the glabrous skin of the right paw of rats anesthetized with diethyl ether (Chaplan et al., 1994). Compounds 6c and 6d were orally administrated 2 hours prior to capsaicin injection. Tactile allodynia was evaluated 90 min after capsaicin challenge. In a more extended study, compounds 6c and 6d were tested against capsaicin-induced secondary allodynia in rats.

[3] = Cytotoxicity on Hep G2 cells; assay type: cell-based; conditions: human
Experimental: as §1
The cells were cultured for 3 days, trypsinized and re-suspended in 20 ml of culture medium. The cells were then counted and diluted to obtain a final concentration suitable for seeding 40.000 cells/well in 96-well cell culture plates (200 μl/well).
The cells were seeded in columns 1 to 11 (column 12 contained medium without cells), then placed for 16-24 hours at 37° C. with 5% of CO2.

[4] = value from Ref. 8 (Rami et al. 2006); cited from earlier work

T2 sequence (O35433 whole entry): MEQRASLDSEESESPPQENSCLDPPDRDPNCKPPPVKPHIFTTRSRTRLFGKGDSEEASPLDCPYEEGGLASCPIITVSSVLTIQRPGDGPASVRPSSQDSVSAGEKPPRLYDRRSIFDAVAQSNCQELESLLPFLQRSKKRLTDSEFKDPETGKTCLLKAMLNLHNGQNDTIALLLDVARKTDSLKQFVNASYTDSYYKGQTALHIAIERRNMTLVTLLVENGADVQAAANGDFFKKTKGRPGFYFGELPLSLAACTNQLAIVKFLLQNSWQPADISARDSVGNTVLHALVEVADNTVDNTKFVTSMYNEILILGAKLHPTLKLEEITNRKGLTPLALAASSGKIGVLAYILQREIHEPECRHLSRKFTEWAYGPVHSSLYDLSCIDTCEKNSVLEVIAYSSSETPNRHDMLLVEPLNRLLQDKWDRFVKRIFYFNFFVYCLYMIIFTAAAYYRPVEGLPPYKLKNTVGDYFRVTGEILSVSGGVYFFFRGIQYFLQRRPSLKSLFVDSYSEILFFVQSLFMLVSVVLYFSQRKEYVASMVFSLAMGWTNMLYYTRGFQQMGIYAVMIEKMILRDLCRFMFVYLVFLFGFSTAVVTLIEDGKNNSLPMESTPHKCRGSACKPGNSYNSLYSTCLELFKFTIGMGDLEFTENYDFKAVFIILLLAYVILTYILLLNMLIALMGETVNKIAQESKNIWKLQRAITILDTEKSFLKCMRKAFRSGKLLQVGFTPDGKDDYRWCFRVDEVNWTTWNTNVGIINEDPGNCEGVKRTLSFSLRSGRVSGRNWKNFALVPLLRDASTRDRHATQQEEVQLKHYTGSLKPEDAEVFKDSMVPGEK
T1 sequence (O35433 whole entry): as above

Structure (SMILES) | Ki (vanilloid TRPV1 receptor) [nM] | IC50 (TRPV1) [nM] | other results
COc1cc(CNC(=O)NCc2ccc(C(F)(F)F)cc2)c(Cl)cc1OCCCO [Compound 6e] | > 1000 | > 1000 | 
COc1cc(CNC(=O)NCc2ccc(C(F)(F)F)cc2)c(Cl)cc1OCC(O)CO (racemic) [Compound 6c, 1-[4-(2,3-Dihydroxypropoxy)-2-chloro-5-methoxybenzyl]-3-[4-(trifluoromethyl)-benzyl]urea] | 60 | 10.2 | half-life [1]: 78 min; % of inhibition of the pro-allodinic effect of capsaicin [2]: 53.1%; IC50 [3]: 52 µM
COc1cc(CNC(=O)NCc2ccc(C(F)(F)F)cc2)c(Br)cc1OC[C@H](O)CO [(R)-(−)6d, 1-[4-((R)-(−)-2,3-dihydroxypropoxy)-2-bromo-5-methoxybenzyl]-3-[4-(trifluoromethyl)-benzyl]urea] |  | 53 | half-life [1]: 266 min
O=C(Nc1ccccc1Br)N[C@@H]1CCN(c2ccc(C(F)(F)F)cn2)C1 [SB-705498, reference compound] |  |  | Pharmacokinetics in Rat Oral t1/2 [4]: 180 ^Ref. 8 min; IC50 [3]: 20.3 µM
COc1cc(CNC(=O)NCc2ccc(C(F)(F)F)cc2)c(-c2ccccc2)cc1OCC(O)CO (stereo not shown) [Compound 6i, 1-[4-(2,3-dihydroxypropoxy)-2-phenyl-5-methoxybenzyl]-3-[4-(trifluoromethyl)-benzyl]urea] | 273 | > 1000 | 
COc1cc(CNC(=O)NCc2ccc(C(F)(F)F)cc2)c(Br)cc1OCCO [Compound 6h, 1-[4-(2-Hydroxyethoxy)-2-bromo-5-methoxybenzyl]-3-[4-(trifluoromethyl)-benzyl]urea] | 150 | 119 | 
COc1cc(CNC(=O)NCc2ccc(C(F)(F)F)cc2)c(Br)cc1OC[C@@H](O)CO [(S)-(+)6d] |  | > 1000 | 
COc1cc(CNC(=O)NCc2ccc(C(F)(F)F)cc2)c(Br)cc1OCC(O)CO (racemic) [Compound 6d, 1-[4-(2,3-Dihydroxypropoxy)-2-bromo-5-methoxybenzyl]-3-[4-(trifluoromethyl)-benzyl]urea] | 86 | 80 | half-life [1]: 65 min; % of inhibition of the pro-allodinic effect of capsaicin [2]: 47.9%; IC50 [3]: 70 µM
COc1cc(CNC(=O)NCc2ccc(C(F)(F)F)cc2)c(-c2ccc(Cl)cc2)cc1OC[C@H](O)CO [Compound 6m, 1-[4-(2,3-dihydroxypropoxy)-2-(4-chloro)phenyl-5-methoxybenzyl]-3-[4-(trifluoromethyl)-benzyl]urea] | 117 |  | melting point: 174 °C
COc1cc(CNC(=O)NCc2ccc(C(F)(F)F)cc2)c(Cl)cc1OC[C@H](O)CO [(R)-(−)6c, 1-[4-((R)-(−)-2,3-dihydroxypropoxy)-2-chloro-5-methoxybenzyl]-3-[4-(trifluoromethyl)-benzyl]urea] |  | 7 | half-life [1]: 462 min

More lines, main results first:

Ki (vanilloid TRPV1 receptor) [nM] | IC50 (TRPV1) [nM] | Structure (SMILES) | other results
175 | 859 | COc1cc(CNC(=O)NCc2ccc(C(C)(C)C)cc2)c(Cl)cc1OCCO [Compound 6a, 1-[4-(2-hydroxyethoxy)-2-chloro-5-methoxybenzyl]-3-[4-(tert-butyl)-benzyl]urea] | 
172 | > 1000 | COc1cc(CNC(=O)NCc2ccc(C(F)(F)F)cc2)c(-c2cccnc2)cc1OCC(O)CO (stereo not shown) [Compound 6l, 1-[4-(2,3-dihydroxypropoxy)-2-(pyridin-3-yl)-5-methoxybenzyl]-3-[4-(trifluoromethyl)-benzyl]urea] | 
 | > 1000 | COc1cc(CNC(=O)NCc2ccc(C(F)(F)F)cc2)c(Cl)cc1OC[C@@H](O)CO [(S)-(+)6c] | 
253 | 500 | COc1cc(CNC(=O)NCc2ccc(C(C)(C)C)cc2)c(Cl)cc1OCCCO [Compound 6f] | 
> 1000 | 164 | COc1cc(CNC(=O)NCc2ccc(C(F)(F)F)cc2)c(Cl)cc1OCCO [Compound 6g, 1-[4-(2-hydroxyethoxy)-2-chloro-5-methoxybenzyl]-3-[4-(trifluoromethyl)-benzyl]urea] | 
